Laboratory results taken from the supplement of paper PMC10307832.

Experiments:
Assay in all cases: relative viability (nuclei count vs DMSO), 5 days (fraction); higher = more cells survive
COR-L23 = system: COR-L23
Summary of the method: (§1)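 Dosing by pin tool came one day after lung cancer cell lines were seeded in 1536-well plates, using either one drug or a fixed anchor-drug dose plus five library-drug doses (not always all listed) in √10 steps. After 5 days, nuclei were counted on 4× images. Relative viability is treated-well nuclei count divided by vehicle-well nuclei count, and values are medians of duplicate plates.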

HOP-62 = system: HOP-62
Summary of the method: as §1

UMC-11 = system: UMC-11
Summary of the method: as §1

NCI-H1755 = system: NCI-H1755
Summary of the method: as §1

NCI-H358 = system: NCI-H358
Summary of the method: as §1

COR-L 105 = system: COR-L 105
Summary of the method: as §1

NCI-H647 = system: NCI-H647
Summary of the method: as §1

NCI-H1734 = system: NCI-H1734
Summary of the method: as §1

NCI-H1395 = system: NCI-H1395
Summary of the method: as §1

HARA = system: HARA
Summary of the method: as §1

NCI-H1792 = system: NCI-H1792
Summary of the method: as §1

Cc1sc2c(c1C)C(c1ccc(Cl)cc1)=N[C@@H](CC(=O)OC(C)(C)C)c1nnc(C)n1-2 [JQ1] + Cc1nc(Nc2ncc(C(=O)Nc3c(C)cccc3Cl)s2)cc(N2CCN(CCO)CC2)n1 [Dasatinib] (partner 0.075 µM)
relative viability (COR-L23; first compound 0.04 µM): 0.507
relative viability (COR-L23; first compound 0.1265 µM): 0.351
relative viability (COR-L23; first compound 0.4 µM): 0.516
relative viability (COR-L23; first compound 1.265 µM): 0.279
relative viability (COR-L23; first compound 4 µM): 0.256
relative viability (HOP-62; first compound 0.04 µM): 0.559
relative viability (HOP-62; first compound 0.1265 µM): 0.31
relative viability (HOP-62; first compound 0.4 µM): 0.355
relative viability (HOP-62; first compound 1.265 µM): 0.158
relative viability (HOP-62; first compound 4 µM): 0.116
relative viability (UMC-11; first compound 0.04 µM): 0.501
relative viability (UMC-11; first compound 0.1265 µM): 0.43
relative viability (UMC-11; first compound 0.4 µM): 0.321
relative viability (UMC-11; first compound 1.265 µM): 0.239
relative viability (UMC-11; first compound 4 µM): 0.221
relative viability (NCI-H1755; first compound 0.04 µM): 0.421
relative viability (NCI-H1755; first compound 0.1265 µM): 0.277
relative viability (NCI-H1755; first compound 0.4 µM): 0.373
relative viability (NCI-H1755; first compound 1.265 µM): 0.343
relative viability (NCI-H1755; first compound 4 µM): 0.2
relative viability (NCI-H358; first compound 0.04 µM): 0.182
relative viability (NCI-H358; first compound 0.1265 µM): 0.262
relative viability (NCI-H358; first compound 0.4 µM): 0.279
relative viability (NCI-H358; first compound 1.265 µM): 0.183
relative viability (NCI-H358; first compound 4 µM): 0.209
relative viability (COR-L 105; first compound 0.04 µM): 0.297
relative viability (COR-L 105; first compound 0.1265 µM): 0.186
relative viability (COR-L 105; first compound 0.4 µM): 0.156
relative viability (COR-L 105; first compound 1.265 µM): 0.119
relative viability (COR-L 105; first compound 4 µM): 0.132
relative viability (NCI-H647; first compound 0.04 µM): 0.147
relative viability (NCI-H647; first compound 0.1265 µM): 0.0904
relative viability (NCI-H647; first compound 0.4 µM): 0.124
relative viability (NCI-H647; first compound 1.265 µM): 0.045
relative viability (NCI-H647; first compound 4 µM): 0.0403
relative viability (NCI-H1734; first compound 0.04 µM): 0.55
relative viability (NCI-H1734; first compound 0.1265 µM): 0.444
relative viability (NCI-H1734; first compound 0.4 µM): 0.457
relative viability (NCI-H1734; first compound 1.265 µM): 0.454
relative viability (NCI-H1734; first compound 4 µM): 0.382
relative viability (NCI-H1395; first compound 0.04 µM): 0.36
relative viability (NCI-H1395; first compound 0.1265 µM): 0.364
relative viability (NCI-H1395; first compound 0.4 µM): 0.362
relative viability (NCI-H1395; first compound 1.265 µM): 0.355
relative viability (NCI-H1395; first compound 4 µM): 0.388
relative viability (HARA; first compound 0.04 µM): 0.207
relative viability (HARA; first compound 0.1265 µM): 0.242
relative viability (HARA; first compound 0.4 µM): 0.309
relative viability (HARA; first compound 1.265 µM): 0.236
relative viability (HARA; first compound 4 µM): 0.247
relative viability (NCI-H1792; first compound 0.04 µM): 0.837
relative viability (NCI-H1792; first compound 0.4 µM): 0.839
relative viability (NCI-H1792; first compound 1.265 µM): 0.579
relative viability (NCI-H1792; first compound 4 µM): 0.5
